US6166008A, “Treatment of schizophrenia with ampakines and neuroleptics” (Cortex Pharmaceuticals, Inc., priority 1998, dated 2000)
Entries after “also recorded” stand apart in the source; their conditions may differ. Where a name gives a salt, the structure may show the parent alone.

Legend:
[1] = system: AMPA-type glutamate receptors; assay: Specificity for AMPA-type glutamate receptors
Description: (§1) Table 2 presents the results of radioligand binding studies that show a lack of interaction between Ampakines and dopaminergic or serotonergic receptors.

Muscarinic receptor = assay: Radioligand binding, [^3 H]-QNB
Description: as §1
(§2) Radioligand Binding Analysis of Potential Interactions between
(§3) Select Ampakines and Select Neurotransmitter Receptors

Dopaminergic receptor = assay: Radioligand binding, [^3 H]-Spiperone
Description: as §1, §2, §3

Serotoninergic receptor = assay: Radioligand binding, [^3 H]-dLSD
Description: as §1, §2, §3

[2] = system: methamphetamine-induced locomotor activity; assay: Methamphetamine-induced locomotor activity / crossing (photobeam system); details: for Percent Reduction in Methamphetamine Induced Activity: Crossing: Table 1; for reduction of METH LMA: text of Example 3, locomotor activity, haloperidol 0.06 mg/kg, combination p<0.005 vs METH+HAL
Description: (§4) In the present experiments, male Sprague-Dawley rats (250-300 g; Charles River Laboratories) were given ad libitum food and water and maintained on a 12:12 hr light:dark cycle with lights on at 6:00 AM. […] Locomotor and rearing activities were continuously monitored by computer for all ten test cages. Test cages (with photobeam arrays) were placed in a partially darkened room with room ventilation as background noise. On the test day, naive rats were initially placed in the test cages and baseline behavioral activity in the novel environment was monitored during a 30-minute acclimation period. The rats were then injected (i.p.) with vehicle or drug(s) dissolved in vehicle and immediately returned to the test cage and monitored undisturbed for 90 minutes.
(§5) Behavioral experiments were repeated at least twice for each condition. Photobeam breaks were summed by the computer into ten-minute periods for analysis. Group means and standard errors are reported in the figures; means and standard deviations were used for statistical analysis by unpaired, two-tailed t test assuming unequal variance.

Adrenergic receptor = assay: Radioligand binding, [^3 H]-Prazosin
Description: as §1, §2, §3

[3] = system: methamphetamine-induced rearing activity; assay: Methamphetamine-induced stereotypic rearing activity (photobeam system); details: for total cumulative rearing activity during the 90 minute period after drug administration: FIG. 2, METH 2 mg/kg in all, combination p<0.0005 vs METH+clozapine, saline 56±9; for total cumulative rearing activity during the 90 minute period after drug administration / total rearing activity during the 90 minute test period: i.p., mean±standard error; for reduction of methamphetamine-induced rearing activity: FIG. 3 legend; for total rearing activity during the 90 minute test period: FIG. 4, METH in all, combination p<0.0005 vs METH+HAL, saline 53±11; for Percent Reduction in Methamphetamine Induced Activity: Rearing: Table 1; for reduction of METH-induced rearing: risperidone 0.1 mg/kg, combination p<0.01 vs METH+RISP
Description: as §4, §5

AMPA receptors = assay: Field EPSP amplitude in rat hippocampal slices; assay type: cell-based; details: field CA1, read-out: EC50 values to increase the amplitude of the field EPSP
Description: The physiological effects of Ampakines may be tested in vitro with slices of rat hippocampus according to the following procedure. Excitatory responses (field EPSPs) are measured in hippocampal slices, which are maintained in a recording chamber continuously perfused with artificial cerebrospinal fluid (ACSF). During a 15-30 minute interval, the perfusion medium is switched to one containing various concentrations of the test compounds. Responses collected immediately before and at the end of drug perfusion were superimposed in order to calculate both the percent increase in EPSP amplitude and percent increase in the width of the response at one-half the peak height (half-width). […]
Current pulses (0.1 msec) through the stimulating electrode activate a population of the Schaffer-commissural (SC) fibers which arise from neurons in the field CA3 and terminate in synapses on the dendrites of CA1 neurons. […] This current results in a voltage in the extracellular space (the field excitatory post-synaptic potential or field "EPSP") which is recorded by a high impedance recording electrode positioned in the middle of the stratum radiatum of CA1. […]

D2 dopamine receptor = details: typical antipsychotics; cited from earlier work
serotonin receptors = details: atypical antipsychotics; cited from earlier work
dopamine receptors = details: atypical antipsychotics; cited from earlier work
[4] = peripheral administration in humans; Guenzi and Zanetti; cited from earlier work
[5] = system: fast synaptic potentials in hippocampus; details: metabolite of aniracetam; cited from earlier work
psychotic symptoms = details: cited from earlier work; for effect on symptoms in patients: Lahti et al.; for effect in volunteers: Krystal et al.
behavior in animals = details: Freed et al.; cited from earlier work
[6] = clozapine 1 mg/kg experiment, CX516 10 mg/kg
[7] = fluphenazine 0.2 mg/kg experiment, CX516 10 mg/kg
[8] = haloperidol 0.06 mg/kg experiment, CX516 30 mg/kg
[9] = risperidone 0.1 mg/kg experiment, CX516 10 mg/kg
[10] = clozapine 1.0 mg/kg, CX516 10 mg/kg
[11] = clozapine experiment, METH 2 mg/kg i.p., clozapine 1.0 mg/kg, CX516 10 mg/kg
[12] = haloperidol experiment, HAL 0.06 mg/kg, CX516 30 mg/kg
[13] = text of Example 2, CX516 10 mg/kg

O=C(c1ccc2nccnc2c1)N1CCCCC1 [CX516, 1-(Quinoxalin-6-ylcarbonyl)piperidine]
specificity for AMPA-type glutamate receptors [1]: quite specific for AMPA-type glutamate receptors | % Inhibition of ligand binding (Muscarinic receptor; 1E-5 Molar): 5.3% | % Inhibition of ligand binding (Muscarinic receptor; 1E-7 Molar): 0.4% | % Inhibition of ligand binding (Muscarinic receptor; 1E-9 Molar): 5.5% | % Inhibition of ligand binding (Dopaminergic receptor; 1E-5 Molar): -2.8% | % Inhibition of ligand binding (Dopaminergic receptor; 1E-7 Molar): 0.6% | % Inhibition of ligand binding (Dopaminergic receptor; 1E-9 Molar): -5.1% | % Inhibition of ligand binding (Serotoninergic receptor; 1E-5 Molar): 9.1% | % Inhibition of ligand binding (Serotoninergic receptor; 1E-7 Molar): 9.9% | % Inhibition of ligand binding (Serotoninergic receptor; 1E-9 Molar): 5.5% | Percent Reduction in Methamphetamine Induced Activity: Crossing [2, 6]: -32% | Percent Reduction in Methamphetamine Induced Activity: Crossing [2, 7]: 47% | Percent Reduction in Methamphetamine Induced Activity: Crossing [2, 8]: 10% | Percent Reduction in Methamphetamine Induced Activity: Crossing [2, 9]: 0% | reduction of METH LMA ([2]; CX516 30 mg/kg): 10% | % Inhibition of ligand binding (Adrenergic receptor; 1E-5 Molar): -0.2% | % Inhibition of ligand binding (Adrenergic receptor; 1E-7 Molar): -3.5% | % Inhibition of ligand binding (Adrenergic receptor; 1E-9 Molar): 0.0% | total cumulative rearing activity during the 90 minute period after drug administration [3, 10]: 495±78 | reduction of methamphetamine-induced rearing activity ([3]; CX516 30 mg/kg, HAL 0.06 mg/kg): 23% | total rearing activity during the 90 minute test period ([3]; HAL 0.06 mg/kg, CX516 30 mg/kg): 863±169 | Percent Reduction in Methamphetamine Induced Activity: Rearing [3, 6]: 34% | Percent Reduction in Methamphetamine Induced Activity: Rearing [3, 7]: 37% | Percent Reduction in Methamphetamine Induced Activity: Rearing [3, 8]: 23% | Percent Reduction in Methamphetamine Induced Activity: Rearing [3, 9]: 28% | effect on methamphetamine-induced rearing [3, 11]: synergistically enhanced the antagonistic activity of clozapine; also recorded: synergistically enhances clozapine antagonism of methamphetamine-induced rearing activity; also recorded: small, but statistically insignificant antagonism of methamphetamine-induced rearing | effect on methamphetamine-induced rearing [3, 12]: modest, non-significant antagonism; also recorded: synergistically enhances haloperidol antagonism of methamphetamine-induced stereotypic rearing activity; also recorded: Neither CX516 (30 mg/kg) nor HAL (0.06 mg/kg) significantly reduced methamphetamine-induced rearing activity | reduction of METH-induced rearing [3, 13]: 28% | antagonism of METH-induced rearing activity ([3]; text of Example 2, clozapine 1.0 mg/kg alone, CX516 10 mg/kg alone): 34% | reduction of METH-induced stereotypic rearing activity ([3]; text of Example 3, haloperidol 0.06 mg/kg, CX516 30 mg/kg, combination p<0.0005 vs haloperidol alone): 22% | EC50 (AMPA receptors): 180 µM

O=C(c1ccc2nonc2c1)N1CCCCC1 [CX691]
specificity for AMPA-type glutamate receptors [1]: quite specific for AMPA-type glutamate receptors | % Inhibition of ligand binding (Muscarinic receptor; 1E-4 Molar): -3.7% | % Inhibition of ligand binding (Muscarinic receptor; 1E-7 Molar): -8.0% | % Inhibition of ligand binding (Dopaminergic receptor; 1E-4 Molar): 10.7% | % Inhibition of ligand binding (Dopaminergic receptor; 1E-7 Molar): 6.1% | % Inhibition of ligand binding (Serotoninergic receptor; 1E-4 Molar): 27.0% | % Inhibition of ligand binding (Serotoninergic receptor; 1E-7 Molar): 1.6% | % Inhibition of ligand binding (Adrenergic receptor; 1E-4 Molar): 7.0% | % Inhibition of ligand binding (Adrenergic receptor; 1E-7 Molar): -7.5% | EC50 (AMPA receptors): 3 µM

OCCN1CCN(CCCN2c3ccccc3Sc3ccc(C(F)(F)F)cc32)CC1 [Fluphenazine, reference compound]
D2 dopamine receptor antagonism (D2 dopamine receptor): potently antagonize the D2 dopamine receptor | Percent Reduction in Methamphetamine Induced Activity: Crossing [2, 7]: 54% | Percent Reduction in Methamphetamine Induced Activity: Rearing [3, 7]: 57%

O=C(CCCN1CCC(O)(c2ccc(Cl)cc2)CC1)c1ccc(F)cc1 [Haloperidol, reference compound]
D2 dopamine receptor antagonism (D2 dopamine receptor): potently antagonize the D2 dopamine receptor | Percent Reduction in Methamphetamine Induced Activity: Crossing [2, 8]: 9% | reduction of METH LMA ([2]; CX516 30 mg/kg): 9% | reduction of methamphetamine-induced rearing activity ([3]; CX516 30 mg/kg, HAL 0.06 mg/kg): 16% | total rearing activity during the 90 minute test period ([3]; HAL 0.06 mg/kg, CX516 30 mg/kg): 934±119 | Percent Reduction in Methamphetamine Induced Activity: Rearing [3, 8]: 16% | effect on methamphetamine-induced rearing [3, 12]: modest, non-significant antagonism | effect on methamphetamine-induced rearing ([3]; haloperidol experiment, HAL 0.06 mg/kg, CX516 30 mg/kg, listed as HAL): Neither CX516 (30 mg/kg) nor HAL (0.06 mg/kg) significantly reduced methamphetamine-induced rearing activity

CN[C@@H](C)Cc1ccccc1 [METH, S-(+)-methamphetamine HCl, reference compound]
total cumulative rearing activity during the 90 minute period after drug administration [3, 10]: 724±136 | total rearing activity during the 90 minute test period ([3]; HAL 0.06 mg/kg, CX516 30 mg/kg): 1105±161 | effect on methamphetamine-induced rearing [3, 11]: large induction of rearing activity

Cc1nc2n(c(=O)c1CCN1CCC(c3noc4cc(F)ccc34)CC1)CCCC2 [Risperidone, reference compound]
serotonin receptor antagonism (serotonin receptors): potent antagonists at serotonin receptors | Percent Reduction in Methamphetamine Induced Activity: Crossing [2, 9]: 43% | dopamine receptor antagonism (dopamine receptors): relatively potent antagonists at dopamine receptors | Percent Reduction in Methamphetamine Induced Activity: Rearing [3, 9]: 51% | reduction of METH-induced rearing [3, 13]: 51%

COc1ccc(C(=O)N2CCCC2=O)cc1 [aniracetam, N-anisoyl-2-pyrrolidinone]
fraction of drug converted to anisoyl-GABA [4]: about 80%

COc1ccc(C(=O)NCCCC(=O)O)cc1 [anisoyl-GABA]
aniracetam-like effects [5]: only weak aniracetam-like effects

CN(C)CCCN1c2ccccc2Sc2ccc(Cl)cc21 [chlorpromazine]
D2 dopamine receptor antagonism (D2 dopamine receptor): potently antagonize the D2 dopamine receptor

CNC1(c2ccccc2Cl)CCCCC1=O (centres unmarked) [ketamine]
effect on symptoms in patients (psychotic symptoms): exacerbate symptoms in patients | effect in volunteers (psychotic symptoms): produce a range of psychotic symptoms in volunteers | effect on behavior in animals (behavior in animals): produce aberrant behavior in animals

Cc1cc2c(s1)Nc1ccccc1N=C2N1CCN(C)CC1 [olanzapine]
serotonin receptor antagonism (serotonin receptors): potent antagonists at serotonin receptors | dopamine receptor antagonism (dopamine receptors): relatively potent antagonists at dopamine receptors

c1ccc(C2(N3CCCCC3)CCCCC2)cc1 [phencyclidine]
effect on symptoms in patients (psychotic symptoms): exacerbate symptoms in patients | effect in volunteers (psychotic symptoms): produce a range of psychotic symptoms in volunteers | effect on behavior in animals (behavior in animals): produce aberrant behavior in animals
